Source: ChEMBL document CHEMBL5338724, “METTL3 from Target Validation to the First Small-Molecule Inhibitors: A Medicinal Chemistry Journey” (J Med Chem, 2023)

Assays:
METTL3/METTL14 [1] = biological target: T1, METTL3/METTL14 (Homo sapiens, UniProt Q86U44); test: Inhibition of full-length His-tagged METTL3/full length FLAG-tagged METTL14 (unknown origin) expressed in baculovirus expression system using synthetic RNA 5'P-uacacucgaucuggacuaaagcugcuc-3' and SAM as substrate preincubated for 10 mins followed by substrate addition and measured after 60 mins by RF/MS analysis
Caov-3 cell line [2] = test: Antiproliferative activity against human Caov-3 cell line assessed as inhibition of cell proliferation incubated for 120 hrs by CellTiter-Glo assay; format: functional, cell-based; details: Caov-3, 120 h
Kasumi 1 = test: Antiproliferative activity against human Kasumi 1 cells assessed as inhibition of cell proliferation incubated for 120 hrs by CellTiter-Glo assay; format: functional, cell-based; details: Kasumi 1, 120 h
[3] = biological target: N6-adenosine-methyltransferase catalytic subunit (Homo sapiens, UniProt Q86U44); test: Inhibition of METTL3 in human MOLM-13 cells assessed as decrease in cellular m6A mRNA level incubated for 24 hrs by NanoDrop spectrophotometer based LC-MS/MS analysis; format: cell-based
MOLM-13 [4] = test: Antiproliferative activity against human MOLM-13 cells assessed as inhibition of cell proliferation incubated for 48 hrs by Cell Titer-Glo reagent assay; format: functional, cell-based; details: MOLM-13, 48 h
MOLM-13 [5] = test: Antiproliferative activity against human MOLM-13 cells assessed as inhibition of cell proliferation incubated for 96 hrs by Cell Titer-Glo reagent assay; format: functional, cell-based; details: MOLM-13, 96 h
METTL3/METTL14 [6] = biological target: T1, METTL3/METTL14; test: Inhibition of METTL3/METTL14 (unknown origin) using biotinylated RNA (UCUGGACUAAA-biotin) and 3H-SAM as substrate preincubated for 5 mins followed by substrate addition and measured after 30 mins by scintillation counter analysis; format: protein-complex assay
METTL3/METTL14 [7] = biological target: T1, METTL3/METTL14; test: Inhibition of METTL3/METTL14 (unknown origin); format: protein-complex assay
MOLM-13 [8] = test: Antiproliferative activity against human MOLM-13 cells assessed as decrease cell proliferation; format: functional, cell-based
MOLM-13 [9] = test: Antiproliferative activity against human MOLM-13 cells assessed as inhibition of cell proliferation and measured after 7 days by CellTiter-Glo assay; format: functional, cell-based; details: MOLM-13, 168 h
Caov-3 cell line [10] = test: Antiproliferative activity against human Caov-3 cell line assessed as inhibition of cell proliferation and measured after 7 days by CellTiter-Glo assay; format: functional, cell-based; details: Caov-3, 168 h
METTL3/METTL14 [11] = biological target: T1, METTL3/METTL14; test: Competive inhibition of full length human METTL3/METTL14 expressed in Sf9 cells using single strand RNA 5'-AAGAACCGGACUAAGCU-3' and SAM as substrate incubated for 40 mins by HTRF assay
METTL3/METTL14 [12] = biological target: T1, METTL3/METTL14; test: Inhibition of METTL3/METTL14 (unknown origin) by bioluminescence assay; format: protein-complex assay
[13] = biological target: Histone-lysine N-methyltransferase 2B (Homo sapiens) (UniProt Q9UMN6); test: Inhibition of MLL4 (unknown origin) at 10 uM relative to control
[14] = biological target: Histone-lysine N-methyltransferase PRDM9 (Homo sapiens) (UniProt Q9NQV7); test: Inhibition of PRDM9 (unknown origin) at 10 uM relative to control
[15] = biological target: METTL3/METTL14 (Homo sapiens) (UniProt Q86U44+Q9HCE5); test: Inhibition of METTL3/METTL14 (unknown origin) at 60 uM relative to control; format: protein-complex assay
METTL3/METTL14 [16] = biological target: T1, METTL3/METTL14; test: Inhibition of METTL3/METTL14 (unknown origin) using RNA 5'-GGACUGGACUGGACU-3' as substrate incubated for 2 hrs by LC-MS/MS analysis; format: protein-complex assay
MIA PaCa-2 = test: cells; details: Homo sapiens, MIA PaCa-2, 72 h
Huh-7 = test: cells; details: Homo sapiens, Huh-7, 72 h

Nc1ncnc2c1c(Br)cn2[C@@H]1C[C@H](c2ccc3cc(CNCC45CC(F)(C4)C5)[nH]c3c2)[C@@H](O)[C@H]1O
IC50 (METTL3/METTL14 [1]): < 6 nM
IC50 (Caov-3 cell line [2]): 250 nM
IC50 (Kasumi 1): 950 nM

COc1cc(-c2cn(Cc3cn4cc(CNCC56CC(F)(C5)C6)ccc4n3)nn2)c2cncn2c1
IC50 (Caov-3 cell line [2]): 305 nM
IC50 (Kasumi 1): 1150 nM

Cn1ccc(-c2cn([C@H]3C[C@H](O)[C@@H](COc4ccc5ccc(N6CCC6)nc5c4)O3)c3ncnc(N)c23)n1
IC50 [3]: < 1000 nM
IC50 (MOLM-13 [4]): < 10000 nM
IC50 (MOLM-13 [5]): < 10000 nM
IC50 (METTL3/METTL14 [6]): < 10 nM

O=C(O)c1ccccc1OCCc1cn(-c2ccc(-c3ccc(Cl)cc3)cc2)c2ccc(-c3ccc(F)cc3)cc12
IC50 (METTL3/METTL14 [7]): 3130 nM
EC50 (MOLM-13 [8]): 26900 nM

CNc1ccc2ccc(OCc3cncc(-n4cc([C@@H]5CCCO5)c5c(N)ncnc54)c3)cc2n1
IC50 [3]: < 1000 nM
IC50 (MOLM-13 [5]): < 10000 nM
IC50 (METTL3/METTL14 [6]): < 10 nM

Cn1ccc(-c2cn([C@@H]3O[C@H](COc4ccc5ccc(N6CCC6)nc5c4)[C@@H](O)[C@@H]3F)c3ncnc(N)c23)n1
IC50 [3]: < 1000 nM
IC50 (MOLM-13 [4]): < 10000 nM
IC50 (MOLM-13 [5]): < 10000 nM
IC50 (METTL3/METTL14 [6]): < 10 nM

COc1ccc2[nH]ncc2c1-c1cn(Cc2cn3cc(CNCC4CCC4)ccc3n2)nn1
IC50 (MOLM-13 [9]): 1170 nM
IC50 (Caov-3 cell line [10]): 558 nM

COc1cc(-c2cn(Cc3cn4cc(CNCC5CCC5)ccc4n3)nn2)c2cncn2c1
IC50 (Caov-3 cell line [2]): 103 nM
IC50 (Kasumi 1): 316 nM

Nc1ncnc2c1ncn2C[C@H]1OC[C@@H](O)[C@@H](O)[C@H]1O
IC50 (METTL3/METTL14 [11]): > 250000 nM

CNc1ccc2ccc(CCc3cncc(-n4cc(-c5ccn(C)n5)c5c(N)ncnc54)c3)cc2n1
IC50 [3]: < 1000 nM
IC50 (MOLM-13 [4]): < 1000 nM
IC50 (METTL3/METTL14 [6]): < 10 nM

Nc1ncnc2c1c(-n1cccn1)cn2[C@@H]1O[C@H](COc2ccc3ccc(N4CCC4)nc3c2)[C@@H](O)[C@@H]1F
IC50 (MOLM-13 [4]): < 10000 nM
IC50 (MOLM-13 [5]): < 10000 nM
IC50 (METTL3/METTL14 [6]): < 10 nM

CC1=NN(c2ccc(C)c(C)c2)C(=O)/C1=N\Nc1cccc(-c2cccc(C(=O)O)c2)c1O [ELTROMBOPAG]
IC50 (METTL3/METTL14 [12]): 3650 nM
inhibition [13]: 29%
inhibition [14]: 30%

Cc1coc(-c2cn([C@@H]3O[C@H](COc4ccc5ccc(N6CCC6)nc5c4)[C@@H](O)[C@@H]3F)c3ncnc(N)c23)n1
IC50 (MOLM-13 [4]): < 10000 nM
IC50 (MOLM-13 [5]): < 10000 nM
IC50 (METTL3/METTL14 [6]): < 10 nM

Nc1ncnc2c1c(Cl)cn2[C@@H]1C[C@H](c2ccc3cc(CNCC45CC(F)(C4)C5)[nH]c3c2)[C@@H](O)[C@H]1O
IC50 (Caov-3 cell line [2]): 250 nM
IC50 (Kasumi 1): 950 nM

Cn1ccc(-c2cn([C@@H]3O[C@H](COc4ccc5ccc(NC6CCC6)nc5c4)[C@@H](O)[C@@H]3F)c3ncnc(N)c23)n1
IC50 [3]: < 1000 nM
IC50 (MOLM-13 [4]): < 10000 nM
IC50 (MOLM-13 [5]): < 10000 nM
IC50 (METTL3/METTL14 [6]): < 10 nM

CC1=NN(c2ccc(C)c(C)c2)C(=O)/C1=N\Nc1cccc(-c2ccccc2)c1O
inhibition [15]: 23.3%

O=C(NCc1cn2cc(CNCC34CC(F)(C3)C4)ccc2n1)c1cc(=O)n2ccccc2n1
IC50 (MOLM-13 [9]): 657 nM
IC50 (Caov-3 cell line [10]): 248 nM

Clc1cc(-c2cn(Cc3cn4cc(CNCC5CCC5)ccc4n3)nn2)c2cn[nH]c2c1
IC50 (METTL3/METTL14 [1]): 4.35 nM

COC(=O)c1cccc(-c2cccc(N/N=C3\C(=O)N(c4ccc(C)c(C)c4)N=C3C)c2O)c1
inhibition [15]: 23.7%

Nc1ncnc2c1c(Br)cn2[C@@H]1C[C@H](c2ccc3cc(CN4CCC5(CCC5)C4)[nH]c3c2)[C@@H](O)[C@H]1O (single isomer, unassigned)
IC50 (Caov-3 cell line [2]): 250 nM
IC50 (Kasumi 1): 950 nM

O=c1c(O)c(-c2ccc(O)c(O)c2)oc2cc(O)cc(O)c12 [QUERCETIN]
IC50 (METTL3/METTL14 [16]): 2730 nM
IC50 (MIA PaCa-2): 73500 nM
IC50 (Huh-7): 100000 nM
